Measured values reported in US6608086B2, “Dihydropyridines and new uses thereof” (Synaptic Pharmaceutical Corporation, priority 1993, dated 2003).
Read-outs that look alike come from different tables or passages of the source.

What was measured:
α2A receptor = biological target: T1, α2A receptor (Homo sapiens, UniProt P08913); experiment: Competition binding, [3H]rauwolscine, human α2A receptor
T1 construct: host or cells: LM(tk-) cells, line L-α2A
T1 sequence (P08913 1-465): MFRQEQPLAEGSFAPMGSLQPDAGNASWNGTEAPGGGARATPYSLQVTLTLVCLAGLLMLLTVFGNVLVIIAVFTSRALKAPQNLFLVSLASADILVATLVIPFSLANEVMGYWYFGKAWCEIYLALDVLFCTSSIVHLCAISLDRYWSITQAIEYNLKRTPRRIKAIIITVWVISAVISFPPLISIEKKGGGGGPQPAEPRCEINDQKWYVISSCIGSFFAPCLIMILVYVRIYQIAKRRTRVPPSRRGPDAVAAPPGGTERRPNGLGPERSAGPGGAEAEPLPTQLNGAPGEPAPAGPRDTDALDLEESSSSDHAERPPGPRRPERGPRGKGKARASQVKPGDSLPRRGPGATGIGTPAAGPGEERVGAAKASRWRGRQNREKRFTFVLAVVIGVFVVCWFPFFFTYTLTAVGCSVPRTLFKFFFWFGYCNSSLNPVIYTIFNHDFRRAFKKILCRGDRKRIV
How it was run: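 Using 25 mM glycylglycine buffer at pH 7.6 (room temperature), membranes from LM(tk−) cells carrying α2A, α2B or α2C were competed against 0.5 nM [3H]rauwolscine to equilibrium. Separation was by GF/B filtration; phentolamine (10 μM) set nonspecific binding.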

L-type calcium channel = biological target: T2, L-type calcium channel (Rattus norvegicus, UniProt P22002); experiment: Competition binding of [3H]nitrendipine to membrane fragments of rat cardiac muscle
T2 construct: membrane fragments of rat cardiac muscle; from tissue; host or cells: rat cardiac muscle membranes

[1] = biological target: T3, α1C Human Adrenergic Receptor (Homo sapiens, UniProt P35348); experiment: Radioligand binding, [3H]prazosin, cloned human α1C adrenergic receptor; conditions: LM(tk-) cell membranes; for Ki: read-out: PKi alpha-1 1c (converted)
T3 construct: The entire coding region of α1C (1401 bp); expressed in transfected cells
T3 sequence (P35348 1-466): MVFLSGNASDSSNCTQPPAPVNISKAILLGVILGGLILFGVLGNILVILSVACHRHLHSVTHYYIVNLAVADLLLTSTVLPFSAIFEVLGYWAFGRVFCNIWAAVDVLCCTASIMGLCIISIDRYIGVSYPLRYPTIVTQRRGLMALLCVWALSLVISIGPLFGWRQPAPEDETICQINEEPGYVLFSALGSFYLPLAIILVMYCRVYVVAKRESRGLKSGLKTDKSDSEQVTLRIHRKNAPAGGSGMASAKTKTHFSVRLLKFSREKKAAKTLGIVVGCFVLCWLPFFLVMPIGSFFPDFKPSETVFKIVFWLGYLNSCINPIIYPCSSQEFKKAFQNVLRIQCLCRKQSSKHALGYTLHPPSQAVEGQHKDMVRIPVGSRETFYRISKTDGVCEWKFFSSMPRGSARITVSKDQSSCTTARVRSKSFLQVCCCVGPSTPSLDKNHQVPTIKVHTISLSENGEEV
How it was run: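 Antagonist radioligand [3H]prazosin at 0.5 nM labels human α1C receptors in stably transfected LM(tk−) cell membranes over 20 min at 37° C. Phentolamine (10 μM) gives nonspecific binding.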

[2] = [3H]rauwolscine, human receptor, LM(tk-) cell lysates, mean, read-out: PKi alpha-2 2a (converted)
[3] = [3H]nitrendipine, rat cardiac muscle membranes, mean, read-out: PKi Ca (converted)

T2 sequence (P22002 whole entry, other chains not shown, the tested form may be a part): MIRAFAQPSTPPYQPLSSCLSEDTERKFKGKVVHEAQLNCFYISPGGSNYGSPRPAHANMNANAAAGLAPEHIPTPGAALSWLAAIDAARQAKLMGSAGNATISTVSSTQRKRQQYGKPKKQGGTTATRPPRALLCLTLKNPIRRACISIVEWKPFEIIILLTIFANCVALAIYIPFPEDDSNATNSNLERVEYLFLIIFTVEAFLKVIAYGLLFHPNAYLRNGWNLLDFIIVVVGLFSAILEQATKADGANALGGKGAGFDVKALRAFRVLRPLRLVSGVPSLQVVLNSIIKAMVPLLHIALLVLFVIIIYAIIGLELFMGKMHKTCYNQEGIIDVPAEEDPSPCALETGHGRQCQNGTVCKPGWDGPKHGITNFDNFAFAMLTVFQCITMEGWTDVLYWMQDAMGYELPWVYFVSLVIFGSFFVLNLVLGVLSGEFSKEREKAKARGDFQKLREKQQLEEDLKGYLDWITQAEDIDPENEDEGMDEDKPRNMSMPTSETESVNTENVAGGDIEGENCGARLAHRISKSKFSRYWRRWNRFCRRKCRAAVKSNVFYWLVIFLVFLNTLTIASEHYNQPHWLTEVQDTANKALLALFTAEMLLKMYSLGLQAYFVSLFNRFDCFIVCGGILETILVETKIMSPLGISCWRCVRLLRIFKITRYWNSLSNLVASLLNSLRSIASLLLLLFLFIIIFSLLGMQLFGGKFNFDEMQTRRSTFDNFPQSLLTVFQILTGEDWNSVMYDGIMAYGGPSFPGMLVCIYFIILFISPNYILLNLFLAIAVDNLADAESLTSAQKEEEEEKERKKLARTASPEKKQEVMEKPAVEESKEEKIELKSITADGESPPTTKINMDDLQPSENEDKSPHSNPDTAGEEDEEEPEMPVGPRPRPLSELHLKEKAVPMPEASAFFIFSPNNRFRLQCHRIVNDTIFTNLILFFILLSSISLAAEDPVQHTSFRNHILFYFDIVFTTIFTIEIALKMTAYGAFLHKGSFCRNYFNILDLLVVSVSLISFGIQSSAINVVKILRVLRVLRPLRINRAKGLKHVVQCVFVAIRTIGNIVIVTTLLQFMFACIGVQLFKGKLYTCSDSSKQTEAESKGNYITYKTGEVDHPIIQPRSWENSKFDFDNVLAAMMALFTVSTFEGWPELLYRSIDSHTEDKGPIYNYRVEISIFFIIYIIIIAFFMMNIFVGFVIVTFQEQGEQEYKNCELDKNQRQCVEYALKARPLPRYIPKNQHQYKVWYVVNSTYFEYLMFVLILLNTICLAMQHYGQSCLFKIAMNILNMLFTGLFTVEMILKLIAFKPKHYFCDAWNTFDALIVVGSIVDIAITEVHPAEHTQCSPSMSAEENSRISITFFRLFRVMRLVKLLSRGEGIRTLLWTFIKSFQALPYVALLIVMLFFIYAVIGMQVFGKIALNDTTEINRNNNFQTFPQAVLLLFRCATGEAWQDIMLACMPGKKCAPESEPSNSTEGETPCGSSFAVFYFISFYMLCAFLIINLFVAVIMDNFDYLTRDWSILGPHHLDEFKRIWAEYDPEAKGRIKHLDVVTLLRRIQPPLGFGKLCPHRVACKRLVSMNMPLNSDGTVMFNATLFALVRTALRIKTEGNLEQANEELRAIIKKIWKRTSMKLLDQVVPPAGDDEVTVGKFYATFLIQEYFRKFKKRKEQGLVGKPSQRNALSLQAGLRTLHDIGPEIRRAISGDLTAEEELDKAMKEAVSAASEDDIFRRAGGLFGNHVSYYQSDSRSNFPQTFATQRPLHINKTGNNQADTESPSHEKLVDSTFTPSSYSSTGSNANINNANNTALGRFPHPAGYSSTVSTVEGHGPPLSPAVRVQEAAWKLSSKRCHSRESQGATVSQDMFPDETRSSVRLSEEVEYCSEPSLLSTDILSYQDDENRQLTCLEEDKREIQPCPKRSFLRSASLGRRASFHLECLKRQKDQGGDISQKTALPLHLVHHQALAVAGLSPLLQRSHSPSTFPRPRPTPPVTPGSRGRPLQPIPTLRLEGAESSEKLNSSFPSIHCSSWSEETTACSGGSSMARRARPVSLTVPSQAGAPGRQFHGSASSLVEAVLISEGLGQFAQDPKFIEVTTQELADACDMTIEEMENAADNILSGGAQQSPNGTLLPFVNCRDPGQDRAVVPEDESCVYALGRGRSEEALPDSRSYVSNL
T2 sequence (P54290 25-944 partner limits assumed, other chains not shown): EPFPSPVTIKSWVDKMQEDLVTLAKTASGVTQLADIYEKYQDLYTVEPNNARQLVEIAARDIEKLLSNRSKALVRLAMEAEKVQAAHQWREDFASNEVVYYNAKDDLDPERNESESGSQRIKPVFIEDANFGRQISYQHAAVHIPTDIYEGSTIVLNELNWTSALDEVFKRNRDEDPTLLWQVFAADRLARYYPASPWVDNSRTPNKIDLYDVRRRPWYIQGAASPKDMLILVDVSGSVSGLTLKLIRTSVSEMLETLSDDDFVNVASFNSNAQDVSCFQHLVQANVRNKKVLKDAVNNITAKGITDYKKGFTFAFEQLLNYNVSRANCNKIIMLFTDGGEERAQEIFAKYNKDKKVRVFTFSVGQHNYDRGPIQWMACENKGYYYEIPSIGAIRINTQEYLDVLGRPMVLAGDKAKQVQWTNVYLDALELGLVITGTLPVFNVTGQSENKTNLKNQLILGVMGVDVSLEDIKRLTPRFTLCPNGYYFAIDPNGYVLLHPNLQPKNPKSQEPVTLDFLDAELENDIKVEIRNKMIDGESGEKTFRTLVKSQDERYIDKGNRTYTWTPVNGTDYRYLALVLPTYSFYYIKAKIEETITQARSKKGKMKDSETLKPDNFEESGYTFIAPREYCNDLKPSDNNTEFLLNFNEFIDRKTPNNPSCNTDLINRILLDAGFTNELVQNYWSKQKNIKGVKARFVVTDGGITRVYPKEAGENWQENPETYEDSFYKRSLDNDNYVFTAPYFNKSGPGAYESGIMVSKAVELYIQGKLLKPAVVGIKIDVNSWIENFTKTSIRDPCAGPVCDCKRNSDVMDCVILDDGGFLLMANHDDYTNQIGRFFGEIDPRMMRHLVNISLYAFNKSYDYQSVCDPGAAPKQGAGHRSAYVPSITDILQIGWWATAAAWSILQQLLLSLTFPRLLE
T2 sequence (P54290 945-1091 partner limits assumed, other chains not shown): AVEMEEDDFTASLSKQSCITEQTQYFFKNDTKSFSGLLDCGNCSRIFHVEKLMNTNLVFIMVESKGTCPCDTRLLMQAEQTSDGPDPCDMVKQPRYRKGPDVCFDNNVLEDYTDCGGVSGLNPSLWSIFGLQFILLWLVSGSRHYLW

| SMILES | Ki (α2A receptor) [nM] | Ki (L-type calcium channel; PKi Ca) [nM] | Ki ([1]; cloned human receptor, mean) [nM] | other results |
| --- | --- | --- | --- | --- |
| CC1=C(C(N)=O)C(c2ccc([N+](=O)[O-])cc2)C(C(=O)NCCCN2CCC(C(=O)OCCC#N)(c3ccccc3)CC2)=CN1C (stereo not drawn) [Example 209, 5-Carboxamido-3-{N-[3-(4-(2-cyanoethoxycarbonyl)-4-phenylpiperidin-1-yl)propyl]}carboxamido-1,4-dihydro-1,6-dimethyl-4-(4-nitrophenyl) pyridine] |  |  |  | PKi alpha-2 2a (α2A receptor; [3H]rauwolscine, human receptor, LM(tk-) cell lysates, mean): 5.78; PKi Ca (L-type calcium channel; [3H]nitrendipine, rat cardiac muscle membranes, mean): 4.53; PKi alpha-1 1c ([1]; cloned human receptor, mean): 8.41 |
| CC1=C(C(N)=O)C(c2ccc([N+](=O)[O-])cc2)C(C(=O)NCCCN2CCC(C(=O)O)(c3ccccc3)CC2)=C(C)N1 (stereo not drawn) [Example 210, 5-Carboxamido-3-{N-[3-(4-carboxy-4-phenylpiperidin-1-yl)propyl]}carboxamido-1,4-dihydro-2,6-dimethyl-4-(4-nitrophenyl)pyridine] | 11000 | 933 | 93.3 |  |
| CCC1=C(C(=O)NC)C(c2ccc([N+](=O)[O-])cc2)C(C(=O)NCCCN2CCC(c3ccccc3)(c3ccccc3)CC2)=C(COCCN)N1 (stereo not drawn) [Example 225, 2-((2-Aminoethyl)oxy)methyl-6-ethyl-1,4-dihydro-5-N-methylcarboxamido-4-(4-nitro)phenyl-3-(3-(N-(4,4-diphenylpiperidin-1-yl)propyl))carboxamidopyridine] | 2040 | 2570 | 3.98 |  |
| CCC1=C(C(=O)NC)C(c2ccc([N+](=O)[O-])cc2)C(C(=O)NCCCN2CCC(C(=O)OC)(c3ccccc3)CC2)=C(COCCN)N1 (stereo not drawn) [Example 229, 2-((2-Aminoethyl)oxy)methyl-6-ethyl-1,4-dihydro-3-(N-(3-(4-methoxycarbonyl-4-phenylpiperidin-1-yl)propyl))carbo xamido-5-N-methylcarboxamido-4-(4-nitro)phenylpyridine] |  |  | 7.08 | Ki (α2A receptor; [2]): 3020 nM; Ki (L-type calcium channel; [3]): 100000 nM |
| CCNC(=O)C1=C(CC)NC(COCCN)=C(C(=O)NCCCN2CCC(C(=O)OC)(c3ccccc3)CC2)C1c1ccc([N+](=O)[O-])cc1 (stereo not drawn) [Example 233, 2-((2-Aminoethyl)oxy)methyl-6-ethyl-5-N-ethylcarboxamido-1,4-dihydro-3-(N-(3-(4-methoxycarbonyl-4-phenylpiperidin-1-yl)propyl))carboxamido-4-(4-nitro)phenylpyridine] | 4790 | 257 | 2.14 |  |
| CCC1=C(C(N)=O)C(c2ccc([N+](=O)[O-])cc2)C(C(=O)NCCCN2CCC(C(=O)OC)(c3ccccc3)CC2)=C(COCCN)N1 (stereo not drawn) [Example 234, 2-((2-Aminoethyl)oxy)methyl-5-carboxamido-6-ethyl-1,4-dihydro-3-(N-(3-(4-methoxycarbonyl-4-phenylpiperidin-1-yl)propyl)) carboxamido-4-(4-nitro)phenylpyridine] |  |  | 1.62 | Ki (α2A receptor; [2]): 1230 nM; Ki (L-type calcium channel; [3]): 398000 nM |
| CCC1=C(C(=O)OC)C(c2ccc([N+](=O)[O-])cc2)C(C(=O)NCCCN2CCC(C(=O)OC)(c3ccccc3)CC2)=C(COCCN)N1 (stereo not drawn) [Example 235, 2-((2-Aminoethyl)oxy)methyl-6-ethyl-1,4-dihydro-5-methoxycarbonyl-3-(N-(3-(4-methoxycarbonyl-4-phenylpiperidin-1-yl)propyl))carboxamido-4-(4-nitro)phenylpyridine] | 2400 | 166000 | 2.09 |  |
| COC(=O)C1=C(C)NC(C)=C(C(=O)NCCCN2CCC(c3ccccc3)(c3ccccc3)CC2)C1c1cccc([N+](=O)[O-])c1 (stereo not drawn) [Example 249, 1,4-Dihydro-3-methoxycarbonyl-2,6-dimethyl-4-(3-nitrophenyl)-5-(N-(3-(4,4-diphenylpiperidin-1-yl)propyl)carboxamido)-pyridine] |  | 30.9 |  | PKi alpha-2 2a (α2A receptor): 5.81; Ki ([1]; cloned human α1C receptor): 0.389 nM |
| COC(=O)C1=C(C)NC(C)=C(C(=O)NCCCN2CCC(c3ccccc3)CC2)C1c1ccc2c(c1)OCO2 (stereo not drawn) [Example 250] |  |  |  | Ki (α2A receptor; [3H]rauwolscine, human α2A receptor, LM(tk-) cells, read-out: PKi alpha-2 2a (converted)): 123 nM; Ki (L-type calcium channel; [3H]nitrendipine, rat cardiac muscle membranes, L-type calcium channel, read-out: PKi Ca (converted)): 13200 nM; Ki ([1]; cloned human α1C receptor): 1.1 nM |
